The results in this text go back to US7790896B2, “RNA-selective probes for live cell imaging of nuclear structure and function” (New York University, priority 2006, dated 2010).

SMILES strings stand for the structures.

Data set [1] can be described thus: Fluorescence spectrum in TE buffer of dyes selected from live cell imaging. It counts as physicochemical. The conditions noted are these: dye 10 μM in TE buffer. Here is the method:
(§1) The fluorescence spectra data in the primary screening and selected dyes titration assay study was obtained by Gemini XS plate reader. RNA solution was prepared right before the assay experiments to avoid possible degradation and contamination. In the primary screening, 1 mg/mL RNA (type VI from torula yeast) buffer solution was used. Point scans were carried out first using five Ex/Em point sets ([…], 400/500, 450/550, 500/600, 550/650 nm). Spectra scans were then carried out for the selected dyes. Excitation wavelengths were set at 350 nm, 400 nm, 450 nm, 500 nm, and 550 nm and the emission wavelengths were scanned. RNA (16S- and 23S-ribosomal from E. coli) and DNA (salmon testes) titration experiments and quantum yield/extinction coefficient determination for the three best dyes were carried out by the plate reader as well. Excitation λmax obtained from F-2500 Hitachi Fluorophotometer was used. Absorbance wavelength was determined by SpectraMax Plus^384 absorbance plate reader. […] was chosen as standard and 480 nm was used as excitation wavelength in the scanning for quantum yield determination.

The subject of data set [2] is RNA (Type VI from torula yeast). Briefly: In vitro solution assay (primary screening): fluorescent emission fold change upon binding to RNA. The conditions noted are these: dye 10 μM, RNA 500 μg/mL in TE buffer. The protocol:
as §1
The screening strategy used in this study is illustrated in FIG. 2. Both in vitro RNA assays and live cell imaging methods were utilized in the primary screening of the dye library. Selective binding of the dye to RNA in solution was the primary criterion for selecting lead compounds for subsequent bioimaging studies, Herein, the library dyes' fluorescent emission intensity fold change upon binding to RNA was measured in solution. Dyes showing five-fold or higher emission changes in the presence of RNA were selected (Table 3). Note the dyes listed are identified by the building blocks I and II from Table 2. For example, A4 is the product made by reacting compound A from the list of Building block I and compound 4 from the list of Building block II.

Consider `COc1ccc2c(ccc(/C=C/c3cc4c5c(c3O)CCCN5CCC4)[n+]2C)c1` [Dye F115], for which, in data set [1], the SPECTRUM EM came to 650 nm and the SPECTRUM EX came out at 500 nm.

As for `COc1ccc2c(ccc(/C=C/c3c(C)cc(C)cc3C)[n+]2C)c1` [Dye F85], in data set [1], the SPECTRUM EM was found to be 470 nm and the SPECTRUM EX was 400 nm.

For the compound `COc1ccc2c(ccc(C=Cc3c(C)ccc4ccccc34)[n+]2C)c1` [Dye F143], in data set [1], the SPECTRUM EM was 550 nm and the SPECTRUM EX amounted to 450 nm.

Regarding `COc1ccc2c(ccc(/C=C/c3cccc(OC)c3OC(C)=O)[n+]2C)c1` [Dye F153], in data set [1], the SPECTRUM EM came out at 470 nm and the SPECTRUM EX came to 350 nm.

As for `C[n+]1c(/C=C/c2ccc(Br)s2)ccc2ccccc21` [Dye E77], in data set [1], the SPECTRUM EM stood at 470 nm and the SPECTRUM EX is 350 nm.

In data set [1], `COc1ccc2c(ccc(C=Cc3ccc(C)c4ccccc34)[n+]2C)c1` [Dye F141] returned an SPECTRUM EM of 560 nm and an SPECTRUM EX of 450 nm.

For the compound `COc1ccc2c(ccc(/C=C/c3cccc(Br)n3)[n+]2C)c1` [Dye F128], in data set [1], the SPECTRUM EM was determined as 510 nm and the SPECTRUM EX amounted to 400 nm.

In data set [1], `COc1ccc2c(ccc(/C=C/c3ccoc3)[n+]2C)c1` [Dye F48] returned an SPECTRUM EM of 480 nm and an SPECTRUM EX of 400 nm.

`COc1ccc2c(ccc(C=Cc3ccc(O)c(Br)c3)[n+]2C)c1` [Dye F158]: in data set [2], the “Em(nm)” value amounted to 620 nm, the “Ex(nm)” value was found to be 500 nm and the “Fold (fluorescent emission fold changes to RNA)” value worked out at 7. Also, in data set [1], the SPECTRUM EM is 620 nm and the SPECTRUM EX is 500 nm.

In the case of `COc1ccc2c(ccc(C=Cc3ccc(-c4cccs4)s3)[n+]2C)c1` [Dye F119], in data set [1], the SPECTRUM EM was found to be 610 nm and the SPECTRUM EX was determined as 500 nm.

In data set [1], `COc1ccc2c(ccc(/C=C/c3cccc(C(F)(F)F)c3)[n+]2C)c1` [Dye F82] displayed an SPECTRUM EM of 490 nm and an SPECTRUM EX of 400 nm.

For the compound `COc1ccc(/C=C/c2ccc3ccccc3[n+]2C)cc1` [Dye E63], in data set [1], the SPECTRUM EM is 480 nm and the SPECTRUM EX amounted to 400 nm.

In data set [1], `COc1ccc2c(ccc(/C=C/c3ccc(OC)c(O)c3Cl)[n+]2C)c1` [Dye F155] showed an SPECTRUM EM of 540 nm and an SPECTRUM EX of 450 nm.

In data set [1], `COc1ccc2c(ccc(/C=C/c3ccccc3OCC(=O)O)[n+]2C)c1` [Dye F116] registered an SPECTRUM EM of 520 nm and an SPECTRUM EX of 400 nm.

Take `COc1ccc2c(ccc(/C=C/C=C/c3ccccc3OC)[n+]2C)c1` [Dye F97]: in data set [1], the SPECTRUM EM came out at 460 nm and the SPECTRUM EX turned out to be 350 nm.

In data set [1], `COc1ccc2c(ccc(C=Cc3ccc4c(c3)OCO4)[n+]2C)c1` [Dye F43] yielded an SPECTRUM EM of 560 nm and an SPECTRUM EX of 450 nm.

In data set [1], `C[n+]1c(/C=C/c2ccc(-c3cccs3)s2)ccc2ccccc21` [Dye E119] returned an SPECTRUM EM of 600 nm and an SPECTRUM EX of 450 nm.

For the compound `COc1ccc2c(ccc(C=Cc3cccc(Br)c3)[n+]2C)c1` [Dye F40], in data set [1], the SPECTRUM EM is 490 nm and the SPECTRUM EX was determined as 400 nm.

In data set [1], `COc1ccc2c(ccc(/C=C/c3cc(Br)ccc3OC)[n+]2C)c1` [Dye F137] returned an SPECTRUM EM of 540 nm and an SPECTRUM EX of 400 nm.

In data set [1], `COc1ccc(Oc2cccc(/C=C/c3ccc4ccccc4[n+]3C)c2)cc1` [Dye E83] displayed an SPECTRUM EM of 450 nm and an SPECTRUM EX of 350 nm.

For the compound `C[n+]1ccc(C=Cc2cccc(F)c2F)c2ccccc21` [Dye D84], in data set [1], the SPECTRUM EM was 460 nm and the SPECTRUM EX came out at 350 nm.

Regarding `CCCCCC(/C=C/c1ccc2cc(OC)ccc2[n+]1C)=C\c1ccccc1` [Dye F101], in data set [1], the SPECTRUM EM is 470 nm and the SPECTRUM EX came out at 350 nm.

In data set [1], `COC(=O)c1cc(OC)cc(OC)c1C=Cc1ccc2cc(OC)ccc2[n+]1C` [Dye F145] yielded an SPECTRUM EM of 540 nm and an SPECTRUM EX of 400 nm.

Take `COc1ccc2c(ccc(C=Cc3ccccc3N(c3ccccc3)c3ccccc3)[n+]2C)c1` [Dye F138]: in data set [1], the SPECTRUM EM was 460 nm and the SPECTRUM EX amounted to 350 nm.

As to `COc1ccc2c(ccc(/C=C/c3cc(I)ccc3O)[n+]2C)c1` [Dye F120], in data set [1], the SPECTRUM EM was found to be 550 nm and the SPECTRUM EX is 450 nm.
